Data taken from paper PMC3285437 (Cell, 2012).

Legend:
[1] = target: Kes1 (Kes1/Osh4) (Saccharomyces cerevisiae, UniProt P35844); assay: [3H]-cholesterol saturation binding, sterol:detergent micelle assay
[2] = target: Kes1 (Kes1/Osh4) (Saccharomyces cerevisiae, UniProt P35844, K242E/K243E/R236E); assay: as above

SMILES: CC(C)CCC[C@@H](C)[C@H]1CC[C@H]2[C@@H]3CC=C4C[C@@H](O)CC[C@]4(C)[C@H]3CC[C@]12C [[^3H]-Cholesterol]
- Kd [1]: 500 to 800 nM
- Kd [2]: 500 to 800 nM
